Experimental data as given in PMC3920557 (The Journal of Experimental Medicine, 2014).
Ends that are not written are not given here.

Experiments:
OB1 B cells = experiment: ERK1/2 phosphorylation in OB1 B cells; assay type: cell-based, mouse; conditions: 0.5 µM, 1 and 3 min; AGA 17-mer 3 min (Fig. 2 B)
[1] = test system: OB1-MHC class II GFP B cells; experiment: Peptide internalization by confocal microscopy, OB1 MHC II GFP B cells; assay type: cell-based, mouse; conditions: Alexa Fluor 647-conjugated versions, 1 µM, 10 min, washed, confocal microscopy (Fig. 1 F)
[2] = Solubility and aggregation of peptide; assay type: physicochemical

Sequence | ERK1/2 phosphorylation, nested peptides (OB1 B cells) | antigen internalization in OB1-MHC class II GFP B cells [1] | water solubility [2]
FDKLPGAGASIEAQGGK [AGA 17-mer] | did not stimulate | did not detect any | –
FDKLPGFGDSIEAQGGK [FGD 17-mer] | – | – | water-soluble
